Data published in patent US6495538B2, “Zinc ionophores as therapeutic agents” (Zinc Therapeutics, Canada Inc., priority 1999, dated 2002).

Legend:
[1] = test system: cultured HUVEC, isolated cardiac myocytes, and cultured cerebellar neurons; test: Zinc ionophore screening with Fura-2 loaded cells; assay type: cell-based, human, rabbit, mouse; settings: for zinc ionophore activity: 1 μM zinc-complexed holo-ionophore, slope of Fura-2 fluorescence ratio 340/380 nm
Protocol: Human umbilical vein endothelial cells (HUVEC) were purchased from Clonetics (San Diego, Calif.) and passages 2-4 were used for these studies. Cells were cultured on flame-sterilized glass coverslips in Endothelial Basal Medium (Clonetics) supplemented with 10 ng/ml human recombinant epidermal growth factor, 1.0 ug/ml hydrocortisone, 50 ug/ml gentamicin, 50 ng/ml amphotetericin B, 12 ug/ml bovine brain extract and 2% v/v fetal bovine serum (all from Clonetics), in a humidified chamber at 37° C. and 5% CO2. To maintain cell populations, proliferating HUVEC were passaged at 80-90% confluency.
Cardiac myocytes were isolated from the ventricular septum of adult rabbit hearts, following collagenase digestion, in a manner similar to that described previously (Turan, B. et al., (1997) Am. J. Physiol. 272:H2095-H2106). The modification consisted of introducing low concentrations of CaCl2 during the perfusion with collagenase and the dispersion of the myocytes. Hearts were perfused for about 2 min by gravity under a hydrostatic pressure of 1 m, with a nominally Ca^2+-free solution containing (in mM): NaCl, 145; KCl, 5; MgSO4, 1.2; Na2HPO4, 1.8; HEPES, 5; glucose, 10; pH adjusted to 7.4 with NaOH. Forty ml of this perfusate were then supplemented with collagenase (1 mg/ml) and perfusion was continued with recirculation. […] The flow rate was then adjusted to 15 ml/min and 50 μM CaCl2 was added to the collagenase solution. Perfusion with this solution was continued for another 15 to 18 min, followed by a 2 min washout of the enzyme with fresh perfusate containing 100 μM CaCl2 and no collagenase. The hearts were then removed from the apparatus and the ventricular septum isolated and minced. Dissociation of the cells was obtained by gentle agitation of the minced tissue in 50 ml of the same perfusing solution. Following filtration through a 200 μm nylon mesh, the cells were allowed to settle and the supernatant was replaced with a solution containing 2 mM CaCl2. Cells were kept at 37° C. in this pre-oxygenated solution and were studied within 8 hours after isolation, cellular viability was ensured by regularly replacing the incubation solution.
Primary cultures of mouse cerebellar granule neurons were obtained from dissociated cerebella of postnatal day 8 or 9 mice according to the following protocol (Cregan et al., (1999) J. Neurosci. 19:7860-7869, incorporated herein by reference). Brains were removed and placed into separate dishes containing solution A (124 mM NaCl, 5.37 mM KCl, 1 mM NaH2 PO4 , 1.2 mM MgSO4 , 14.5 mM D-(1)-glucose, 25 mM HEPES, 3 mg/ml BSA, pH 7.4) in which the cerebella were dissected, meninges removed, and tissue sliced into small pieces. The tissue was briefly centrifuged and transferred to solution A containing 0.25 mg/ml trypsin, then incubated at 37° C. for 18 min. After the addition of 0.082 mg/ml trypsin inhibitor (Boehringer Mannheim, Indianapolis, IN) and 0.25 mg/ml DNase I (Boehringer Mannheim), the tissue was incubated at 25° C. for 2 min. After a brief centrifugation, the resulting pellet was gently titrated in solution A yielding suspension that was further incubated for 10 min at 25° C. in solution A containing 2.7 mM MgSO4 and 0.03 mM CaCl2. After a final centrifugation the pellet was resuspended in EMEM media (Sigma, St. Louis, Mo.) containing 10% dialyzed FBS (Sigma), 25 mM KCl, 2 mM glutamine (Life Technologies BRL, Gaithersburg, Md.), 25 mM glucose, and 0.1 mg/ml gentamycin (Sigma) and filtered through a cell strainer (size 70 μm; Falcon). Cells were plated on glass coverslips coated with poly-D-lysine (Sigma) in Nunc four-well dishes at a density of 1.5×10^6 cells per milliliter of medium. Cytosine-β-arabinoside (10 μM; Sigma) was added 24 hr after plating.
In order to ascertain that the transported ion was indeed Zn^2+, and not some other divalent cation contaminant, the test compounds were first complexed with zinc.

[2] = test system: Human umbilical vein endothelial cells (HUVEC)
Protocol: Human umbilical vein endothelial cells (HUVEC) were purchased from Clonetics (San Diego, Calif.) and used from passages 2-4. Cells were cultured on gelatin-coated culture dishes in Endothelial Basal Medium (Clonetics) supplemented with 10 ng/ml human recombinant epidermal growth factor, 1.0 ug/ml hydrocortisone, 50 ug/ml gentamicin, 50 ng/ml amphotetericin B, 12 ug/ml bovine brain extract and 2% v/v fetal bovine serum, in a humidified chamber at 37° C. and 5% CO2. To maintain cell populations, proliferating HUVEC were passaged at 80-90% confluency.
HUVEC were grown to confluency, and then given an additional 24 hours to achieve quiescence prior to experimental treatment. The following treatments were performed:
The cells were washed twice with 37° C. D-PBS and then irradiated in fresh media. Irradiated cells received a dose of 1000 Rads of gamma-irradiation from a ^137Cesium source (Atomic Energy of Canada). The cells were then incubated for 2 hours (cytosolic and nuclear protein extraction) or 8 hours (Hoechst staining and DNA electrophoresis).
Cells were grown on round, gelatin coated 12 mm glass coverslips, and following treatment, were fixed with 0.5 ml of 1% glutaraldehyde in PBS for 10 minutes at room temperature (RT). […] The nuclear morphology of the cells was then visualized under a Zeiss Axiophot fluorescence microscope.

PC12 cells = test: Differentiated PC12 cells, H2O2-induced apoptosis; assay type: cell-based, rat; settings: concentrations equivalent to those of zinc-pyrithione; not shown
Description: Control cells were pretreated with the carrier DMSO alone.

PTZ-induced seizures = test: Subcutaneous PTZ (pentylenetetrazole) test; assay type: in vivo, rat; settings: 62.5 nmol/kg i.p.
Description: The ability of a test compound to inhibit PTZ-induced clonic and tonic convulsions is currently regarded as predictive of efficacy against “absence” seizures and/or myoclonic seizures (Suzdak, Jansen, 1995, Epilepsia, 36(6):612-626). The pharmacological profile of the PTZ test varies depending on the endpoint selected: PTZ can produce myoclonic jerks, repeated clonic seizures of forelimbs and hindlimbs with and without loss of righting reflex, and loss of righting reflex followed by tonic extension of the forelimbs and hind limbs. To have the full picture of the PTZ-induced seizures and of the effects of zinc ionophores, and to make the model more discriminative (White at al., supra) the behavioral reaction of each rat was monitored for a period of 2 hours which is much longer than the usual time period in conventional screening experiments.
PTZ (120 mg/kg) was administered subcutaneously to male Wistar rats (300-450 g). Zinc ionophores were injected i.p. in one bolus, 30 min before PTZ at a dose of 62.5 nmol/kg and a total volume of 0.25-0.4 ml.

## COc1ccc2c(c1)c(CC(=O)O)c(C)n2C(=O)c1ccc(Cl)cc1 [Indomethacin]
[1]
  zinc ionophore activity: Indomethacin ✓

## Cc1c(C)c2c(c(C)c1O)CC[C@@](C)(CCC[C@H](C)CCC[C@H](C)CCCC(C)C)O2 [Vitamin E (alpha-tocopherol), alpha-tocopherol]
[1]
  zinc ionophore activity: Vitamin E (alpha-tocopherol) ✓

## [Na+].[O-][n+]1ccccc1[S-] [sodium-pyrithione]
[2]; 1000 Rads gamma-irradiation, 8 hours
  apoptosis in irradiated HUVEC: not effective
[2]; non-irradiated HUVEC
  apoptosis caused in control cultures: No apoptosis

## [Zn+2] [Zn^2+]
PC12 cells
  apoptosis of H2O2-treated cells: did not block apoptosis

## CCN(CC)C(=S)SSC(=S)N(CC)CC [Disulfiram]
[1]
  zinc ionophore activity: Disulfiram ✓✓

## CC1=C(/C=C/C(C)=C/C=C/C(C)=C/CO)C(C)(C)CCC1 [Vitamin A (all-trans-retinol), all-trans-retinol]
[1]
  zinc ionophore activity: Vitamin A (all-trans-retinol) ✓

## Oc1cccc2cccnc12 [8-Hydroxyquinoline]
[1]
  zinc ionophore activity: 8-Hydroxyquinoline, ✓

## S=C(S)N1CCCC1 [Pyrrolidinedithiocarbamate]
[1]
  zinc ionophore activity: Pyrrolidinedithiocarbamate ✓✓

## Oc1c(I)cc(I)c2cccnc12.[Zn] [ZDIHQ, zinc 5,7-diiodo-8-hydroxyquinoline]
[1]
  zinc ionophore activity: 5,7-Diiodo-8-hydroxyaquinoline ✓✓
[1]; HUVEC, cardiac myocytes, cerebellar neurons
  ionophore activity compared between cell types: comparable in all three cell types tested
PTZ-induced seizures; M ± S.E.M.
  latency of clonus with loss of righting reflex: 21.2 ± 2.7 min
  latency of clonus without loss of righting reflex: 15.6 ± 1.7 min
  latency of tonic seizure: 28.4 ± 4.1 min
PTZ-induced seizures; rats which died within 2 h
  increase of survival time (mean time to death) of non-survivors: 1.6 fold
